According to PubChem BioAssay (NCI):
Several values for one entry are separate records, joined by “and”; a condition that tells them apart may be missing. Equal entries are not always repeated.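 96-well plates; 48 h exposure; 5 concentrations. Endpoints by linear interpolation between flanking doses. Not reached: highest tested concentration assigned. GI50 is the concentration that inhibits growth by half. TGI is the concentration that stops growth completely.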

How the values were obtained:
Experiment in all cases: NCI tumour cell line growth inhibition, 48 h
[1] = tested on: TK-10 renal
[2] = tested on: SF-539 CNS
[3] = tested on: SNB-75 CNS
[4] = tested on: HOP-62 NSCLC
[5] = tested on: OVCAR-4 ovarian
[6] = tested on: HOP-92 NSCLC
[7] = tested on: RXF 393 renal
[8] = tested on: A498 renal
[9] = tested on: PC-3 prostate
[10] = tested on: HCT-116 colon

Structure (SMILES) | GI50 [1] | TGI [1] | TGI [2] | TGI [3] | GI50 [4] | TGI [4] | TGI [5] | TGI [6] | TGI [7] | GI50 [8] | TGI [8] | GI50 [2] | GI50 [3] | GI50 [5] | GI50 [6] | GI50 [9] [µM] | TGI [9] [µM] | GI50 [10] | TGI [10] | GI50 [7]
CC1(C)OC2OC(COC(=O)C(c3ccccc3)c3ccccc3)C3OC(C)(C)OC3C2O1 (stereo not given) | > 100 µM | > 100 µM | > 100 µM | 87.2 µM | > 100 µM | > 100 µM | > 100 µM | > 100 µM | > 100 µM | > 100 µM | > 100 µM | – | – | – | – | – | – | – | – | –
O=S(=O)(NCCCNc1nccc(-c2c(-c3cccc(F)c3)nc3occn23)n1)c1cccc2ccccc12 | 11 µM | > 100 µM | > 100 µM | > 100 µM | 97.1 µM | > 100 µM | > 100 µM | > 100 µM | – | 8.36 µM | > 100 µM | > 100 µM | 3.38 µM | 7.66 µM | > 100 µM | 3.38 | > 100 | 3.71 µM | > 100 µM | –
CC1CCC2c3c([nH]c4ccccc34)C3C(=O)N(c4ccccc4)C(=O)C3C2C1 (stereo not given) | 45.5 µM | 67.5 µM and 181 µM | 27.6 µM and > 250 µM | – | – | 92 µM | > 250 µM | 56.8 µM | 33.7 µM | – | – | 34 µM | 12.1 µM | – | – | – | – | – | > 250 µM | –
CC1=C(C(=O)CC(=O)C(=O)Nc2ccccc2C)Sc2ccccc2N1 | – | > 100 µM | > 100 µM | > 100 µM | – | > 100 µM | > 100 µM | > 100 µM | > 100 µM | – | > 100 µM | – | – | – | – | – | – | – | > 55.8 µM | –
O=C1c2ccoc2C(=O)c2oc(=O)ccc21 | – | > 59.1 µM | 8.31 µM | 15.6 µM | – | > 61.1 µM | 13.5 µM | 39.8 µM | 15.1 µM | – | > 85.9 µM | – | – | – | – | – | – | – | 10.3 µM | –
c1ccc2c(c1)[O][Sn][O]2 | 101 µg/mL | > 150 µg/mL | > 150 µg/mL | > 150 µg/mL | 36.1 µg/mL | > 150 µg/mL | > 150 µg/mL | > 150 µg/mL | 120 µg/mL | 41.2 µg/mL | > 150 µg/mL | 26.2 µg/mL | 100 µg/mL | 102 µg/mL | 64.8 µg/mL | – | – | 19.8 µg/mL | > 150 µg/mL | 23.4 µg/mL
Cc1cn2c(/C=C3/C(=O)Nc4ccc(C(=O)O)cc43)c(C)nc2s1 | > 100 µM | > 100 µM | > 100 µM | > 100 µM | > 100 µM | > 100 µM | > 100 µM | > 100 µM | – | > 100 µM | > 100 µM | > 100 µM | > 100 µM | > 100 µM | > 100 µM | > 100 | > 100 | – | – | –
CCOC(=O)COc1cccc2occc(=O)c12 | – | > 100 µM | > 100 µM | – | – | > 100 µM | > 100 µM | > 100 µM | – | – | > 100 µM | – | – | – | – | – | – | – | > 100 µM | –
Nc1c(C(=O)Nc2ccccn2)sc2nc3c(cc12)CCCCCC3 | 2.87 µM | 10.3 µM | 3.07 µM | 21.6 µM | 1.55 µM | 11 µM | 15.8 µM | 11.4 µM | 4.07 µM | – | – | 0.58 µM | 0.649 µM | 4.21 µM | 1.86 µM | 1.54 | 12.2 | 0.225 µM | 7.14 µM | 0.903 µM
CC(C)c1cc(C(C)C)c(Cl)c(Cl)c1O (tested in a mixture with another compound) | – | 54.3 µM | 49 µM | – | – | > 100 µM | – | 27.9 µM | 32.5 µM | – | – | – | – | – | – | – | 40.7 | – | > 100 µM | –
CN1CC[C@]23c4c5ccc(O)c4OC2c2[nH]ncc2C[C@H]3[C@H]1C5 (stereo not given in full) | – | > 100 µM | – | > 100 µM | – | > 100 µM | > 100 µM | > 100 µM | > 100 µM | – | – | – | – | – | – | – | > 100 | – | > 100 µM | –
O=C(CCC(=O)C1Cc2ccccc2C1=O)Nc1cccc(C(F)(F)F)c1 (stereo not given) | – | > 100 µM | > 100 µM | – | – | > 100 µM | > 100 µM | > 100 µM | > 100 µM | – | – | – | – | – | – | – | – | – | > 100 µM | –
CC(C)(C)c1cc(C(OCCl)(C(F)(F)F)C(F)(F)F)c2c(c1)C(C(F)(F)F)(C(F)(F)F)OC21c2ccccc2C(=O)c2ccccc21 | – | > 100 µM | > 100 µM | > 100 µM | – | – | > 100 µM | – | > 100 µM | – | – | – | – | – | – | – | – | – | > 100 µM | –
CCOC(=O)C1=C(C)N(Cc2ccc(Cl)cc2Cl)[C@]2(C#N)C(O)=C(Cl)C(Cl)=C(O)[C@]12C#N | 84.7 µM | > 100 µM | 33.1 µM | 86.4 µM | > 100 µM | > 100 µM | > 100 µM | 44.2 µM | 89.1 µM | > 100 µM | > 100 µM | 14.2 µM | 32.2 µM | > 100 µM | 17.9 µM | – | – | 34.7 µM | > 100 µM | 30.6 µM
Nc1nc(-c2ccccc2)cc(-c2cc(Cl)ccc2O)n1 | – | > 100 µM | > 100 µM | 69 µM | – | 85.5 µM | > 100 µM | > 100 µM | > 100 µM | – | > 100 µM | – | – | – | – | – | – | – | > 100 µM | –
O=c1c2cccc3cccc(c4n1CCCN=4)c32 | – | > 100 µM | > 100 µM | > 100 µM | – | > 100 µM | > 100 µM | > 100 µM | > 100 µM | – | > 100 µM | – | – | – | – | – | – | – | > 100 µM | –
O=C(O)Cn1ccc(=O)c2c([N+](=O)[O-])cccc21 | – | > 100 µM | > 100 µM | > 100 µM | – | > 100 µM | – | – | – | – | > 100 µM | – | – | – | – | – | > 100 | – | > 100 µM | –
COc1ccc2c3c(c(C(=O)O)oc13)C(CCC(=O)O)CC2 (stereo not given) | – | > 100 µM | > 100 µM | > 100 µM | – | > 100 µM | > 100 µM | > 100 µM | > 100 µM | – | > 100 µM | – | – | – | – | – | – | – | > 100 µM | –
O=C(Nc1ccc(Br)cc1)Nc1cccc(Br)c1 | – | – | > 100 µM | 63 µM | 7.24 µM | > 100 µM | – | – | > 100 µM | 4.81 µM | > 100 µM | 15.3 µM | 10.2 µM | – | – | – | – | – | – | > 100 µM
CN(C)CCNC(=O)c1cccc2cc3ccc4ccccc4c3nc12 | – | 0.904 µM | 0.39 µM | 0.399 µM | – | 0.309 µM | 0.752 µM | 0.593 µM | 0.267 µM | – | 0.0693 µM | – | – | – | – | – | – | – | 1.05 µM | –
